The text below walks through data of patent US20240002350A1, “PROTEIN AND LIPID THERAPEUTIC TARGETS” (UNIVERSITY OF PITTSBURGH-OF THE COMMONWEALTH SYSTEM OF …, priority 2020, published 2024).

Structures are written as SMILES.

The subject of this assay is 15LOX/PEBP1. The experiment in a line: Potency of 15LOX/PEBP1 inhibitors with anti-ferroptotic effect (Table 1). In kind it is cell-based. The text has this: Development and testing of new compounds that inhibit 15LOX/PEBP1 complex activity. A combination of computational and experimental studies are used. […] Computer modeling considers specific features of organization of 15LOX/PEBP1 complexes and positioning of AA-PE as well as regio-specific oxygenation of AA-residues at 15th carbon. […] It has been shown that: i) binding interface of 15LOX in 15LOX/PEBP1 complex includes a helix on 15LOX (α2) and kinase binding epitope (D144, H145, R146) on PEBP1 (FIG. 8); and ii) interfacial interactions play a pivotal role in allosterically altering conformational dynamics of 15LOX in complex, and its substrate specificity. Analysis of change in access to catalytic site upon PEBP1 binding, using elastic network models indicates needed sites at 15LOX/PEBP1 binding interface. Dynamics simulations are also performed, for 15LOX alone and 15LOX/PEBP1 complex. An effective inhibitor, NCG-01, with in vivo activity has been indicated. Several other 15LOX/PEBP1 inhibitors with anti-ferroptotic effect (FIG. 9) have been identified. To test the effectiveness of compounds identified from the computational screen, RSL3 and mechanical stretch models with LDH and PI assays as a primary outcome are performed. The compounds that inhibit cell death by at least 50% are then evaluated for their effects on AA-PE and AA oxidation by 15LOX/PEBP1 complex and 15LOX alone, respectively, by LC-MS. Evaluation of the effect of compounds in suppressing AA-PE-OOH formation in cells upon proferroptotic stimuli is also performed.

As to `Fc1cccc(-n2cc(-c3ccccc3)nc2NCc2cccc(C(F)(F)F)c2F)c1` [Compound 58, N-(2-fluoro-3-(trifluoromethyl)benzyl)-1-(3-fluorophenyl)-4-phenyl-1H-imidazol-2-amine], the Potency result was “++ (++ = 101-1000 nM)”. For the compound `FC(F)(F)c1ccc(-c2cn(-c3ccccc3)c(SCc3ccccc3)n2)cc1` [Compound 4, 2-(benzylthio)-1-phenyl-4-(4-(trifluoromethyl)phenyl)-1H-imidazole], the Potency result is “+ (+ > 1 μM)”.

As for `CC(C)c1ccc(CSc2nc(-c3ccccc3)cn2-c2cccc(F)c2)cc1` [Compound 47, 1-(3-fluorophenyl)-2-((4-isopropylbenzyl)thio)-4-phenyl-1H-imidazole], the Potency result was “+ (+ > 1 μM)”.

With `FC(F)Oc1cccc(-n2cc(-c3ccccc3)nc2SCc2ccc(C(F)(F)F)cc2)c1` [Compound 28, 1-(3-(difluoromethoxy)phenyl)-4-phenyl-2-((4-(trifluoromethyl)benzyl)thio)-1H-imidazole], the Potency entry was “+ (+ > 1 μM)”. The same measure for `CC(C)(C)OC(=O)Nc1ccc(CSc2nc(-c3ccccc3)cn2-c2cccc(F)c2)cc1` [Compound 53, tert-butyl (4-(((1-(3-fluorophenyl)-4-phenyl-1H-imidazol-2-yl)thio)methyl)phenyl)carbamate]: “+ (+ > 1 μM)”; for `Fc1cccc(-n2cc(-c3ccccc3)nc2NCc2ccccc2)c1` [Compound 61, N-benzyl-1-(3-fluorophenyl)-4-phenyl-1H-imidazol-2-amine]: “++ (++ = 101-1000 nM)”; for `N#Cc1ccc(CNc2nc(-c3ccccc3)cn2-c2cccc(F)c2)cc1` [Compound 56, 4-(((1-(3-fluorophenyl)-4-phenyl-1H-imidazol-2-yl)amino)methyl)benzonitrile]: “++ (++ = 101-1000 nM)”. Regarding `Fc1cccc(-n2cc(-c3ccccc3)nc2SCc2ccc(OC(F)(F)F)cc2)c1` [Compound 36, 1-(3-fluorophenyl)-4-phenyl-2-((4-(trifluoromethoxy)benzyl)thio)-1H-imidazole], the Potency result is “+ (+ > 1 μM)”. As to `CC(Sc1nc(-c2ccccc2)cn1-c1cccc(F)c1)c1ccccc1` (stereo not drawn) [Compound 38, 1-(3-fluorophenyl)-4-phenyl-2-((1-phenylethyl)thio)-1H-imidazole], the Potency result is on record as “+ (+ > 1 μM)”. On to `NC(=O)c1ccc(CSc2nc(-c3ccccc3)cn2-c2cccc(F)c2)cc1` [Compound 50, 4-(((1-(3-fluorophenyl)-4-phenyl-1H-imidazol-2-yl)thio)methyl)benzamide], for which the Potency entry is on record as “+ (+ > 1 μM)”. Next, `Cc1cc(CNc2nc(-c3ccccc3)cn2-c2cccc(F)c2)ccc1C(F)(F)F` [Compound 69, 1-(3-fluorophenyl)-N-(3-methyl-4-(trifluoromethyl)benzyl)-4-phenyl-1H-imidazol-2-amine]: “++ (++ = 101-1000 nM)”.

For `Fc1cccc(-n2cc(-c3ccccc3)nc2SCc2ccc(C3(C(F)(F)F)N=N3)cc2)c1` [Compound 26, 1-(3-fluorophenyl)-4-phenyl-2-((4-(3-(trifluoromethyl)-3H-diazirin-3-yl)benzyl)thio)-1H-imidazole], the Potency result is reported as “+ (+ > 1 μM)”. The same measure for `Cc1ccc(-n2cc(-c3ccccc3)nc2SCc2ccc(C(F)(F)F)cc2)cc1` [Compound 16, 4-phenyl-1-(p-tolyl)-2-((4-(trifluoromethyl)benzyl)thio)-1H-imidazole]: “+ (+ > 1 μM)”; for `Cc1ccc(CSc2nc(-c3ccccc3)cn2-c2cccc(F)c2)cc1` [Compound 33, 1-(3-fluorophenyl)-2-((4-methylbenzyl)thio)-4-phenyl-1H-imidazole]: “+ (+ > 1 μM)”. Take `CS(=O)(=O)c1ccc(CSc2nc(-c3ccccc3)cn2-c2cccc(F)c2)cc1` [Compound 40, 1-(3-fluorophenyl)-2-((4-(methylsulfonyl)benzyl)thio)-4-phenyl-1H-imidazole]: the Potency result is reported as “+ (+ > 1 μM)”.
